Measured values published in ChEMBL document CHEMBL5126552, “Discovery of small-molecule compounds and natural products against Parkinson's disease: Pathological mechanism and structural modification” (Eur J Med Chem, 2022).

Experiments:
D(2) dopamine receptor [1] = biological target: T1, D(2) dopamine receptor (Homo sapiens, UniProt P14416)
Description: Agonist activity at dopamine D2 receptor (unknown origin)

[2] = Agonist activity at rat mGlu4 receptor assessed as increase in calcium flux
in vivo [3] = details: rat, po, 15 mg/kg
Description: Oral bioavailability in 6-OHDA-unilateral lesioned rat model of Parkinson's disease at 15 mg/kg

[4] = Displacement of [3H]-spiperone from D2 receptor in rat striatum incubated for 90 mins by competitive radioligand binding based scintillation counter analysis
[5] = Displacement of [3H]-SCH23390 from D1 receptor in rat striatum incubated for 30 mins by competitive radioligand binding based scintillation counter analysis
D(3) dopamine receptor [6] = biological target: T2, D(3) dopamine receptor (Homo sapiens, UniProt P35462); assay: Agonist activity at dopamine D3 receptor (unknown origin)
[7] = Inhibition of c-Jun phosphorylation in streptozotocin stimulated rat INS1 cells using TMB as substrate incubated for 16 hrs by microplate reader assay; details: INS1, 16 h
[8] = biological target: T3, Amine oxidase [flavin-containing] B (Homo sapiens, UniProt P27338); assay: Inhibition of human MAO-B
T3 sequence (P27338 whole entry): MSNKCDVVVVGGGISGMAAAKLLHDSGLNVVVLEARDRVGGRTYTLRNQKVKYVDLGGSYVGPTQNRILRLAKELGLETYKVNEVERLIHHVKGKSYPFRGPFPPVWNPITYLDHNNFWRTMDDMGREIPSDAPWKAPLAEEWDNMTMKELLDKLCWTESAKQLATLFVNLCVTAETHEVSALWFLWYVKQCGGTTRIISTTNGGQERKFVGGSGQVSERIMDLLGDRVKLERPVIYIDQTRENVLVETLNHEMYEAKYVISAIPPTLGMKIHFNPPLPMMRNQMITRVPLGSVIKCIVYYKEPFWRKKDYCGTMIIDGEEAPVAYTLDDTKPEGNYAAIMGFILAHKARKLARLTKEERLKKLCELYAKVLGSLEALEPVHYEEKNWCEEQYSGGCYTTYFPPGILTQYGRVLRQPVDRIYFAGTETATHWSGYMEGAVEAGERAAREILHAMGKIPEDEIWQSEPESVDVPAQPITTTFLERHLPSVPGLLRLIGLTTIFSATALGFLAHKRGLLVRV

[9] = Agonist activity at D2 receptor in mouse MN9D cells assessed as increase in GTPgammaS binding
[10] = Agonist activity at D3 receptor in mouse MN9D cells assessed as increase in GTPgammaS binding
[11] = Inhibition of Monoamine oxidase in MPTP-induced C57BL/6 mouse assessed as inhibition constant
[12] = Plasma concentration in 6-OHDA-unilateral lesioned mouse model of Parkinson's disease at 50 mg/kg,ip measured after 4 hrs
[13] = Drug concentration in 6-OHDA-unilateral lesioned mouse model of Parkinson's disease assessed as brain concentration at 50 mg/kg,ip measured after 4 hrs
Adenosine receptor A2a [14] = biological target: Adenosine receptor A2a (Homo sapiens, UniProt P29274); assay: Antagonist activity at human adenosine A2A receptor
Adenosine receptor A1 [15] = biological target: T4, Adenosine receptor A1 (Homo sapiens, UniProt P30542)
T4 sequence (P30542 whole entry): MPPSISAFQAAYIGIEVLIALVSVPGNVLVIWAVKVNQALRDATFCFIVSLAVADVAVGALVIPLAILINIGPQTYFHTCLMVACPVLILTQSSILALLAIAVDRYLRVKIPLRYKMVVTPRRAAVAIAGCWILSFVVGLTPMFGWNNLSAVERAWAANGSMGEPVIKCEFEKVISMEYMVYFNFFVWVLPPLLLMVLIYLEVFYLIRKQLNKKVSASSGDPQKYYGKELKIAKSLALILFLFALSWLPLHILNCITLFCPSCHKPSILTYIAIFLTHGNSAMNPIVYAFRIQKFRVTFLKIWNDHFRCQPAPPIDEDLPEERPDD
Description: Antagonist activity at human adenosine A1 receptor

Adenosine receptor A2a [16] = biological target: Adenosine receptor A2a (Rattus norvegicus, UniProt P30543); assay: Antagonist activity at rat adenosine A2A receptor
Adenosine receptor A1 [17] = biological target: T5, Adenosine receptor A1 (Rattus norvegicus, UniProt P25099); assay: Antagonist activity at rat adenosine A1 receptor
T5 sequence (P25099 whole entry): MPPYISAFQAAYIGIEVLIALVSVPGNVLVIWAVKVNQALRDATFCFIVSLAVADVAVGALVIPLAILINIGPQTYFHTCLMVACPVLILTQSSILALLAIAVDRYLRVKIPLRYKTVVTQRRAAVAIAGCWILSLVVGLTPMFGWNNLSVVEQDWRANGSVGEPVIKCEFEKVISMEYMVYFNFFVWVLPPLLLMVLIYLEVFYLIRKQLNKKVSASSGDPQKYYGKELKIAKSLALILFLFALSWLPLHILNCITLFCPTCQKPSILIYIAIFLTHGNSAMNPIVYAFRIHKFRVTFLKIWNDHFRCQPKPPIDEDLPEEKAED

[18] = Metabolic stability at human liver microsomes assessed as half life
[19] = Metabolic stability at human liver microsomes assessed as intrinsic clearance
D(3) dopamine receptor [20] = biological target: T2, D(3) dopamine receptor; assay: Agonist activity at dopamine D3 receptor (unknown origin) assessed as increase in GTPgammaS binding
D(2) dopamine receptor [21] = biological target: T1, D(2) dopamine receptor; remark: listed apart in the source
[22] = Half life in rat at 3 mg/kg,po; details: in vivo
in vivo [23] = details: rat, po, 3 mg/kg
animal or person = details: Mus musculus, po, 6 h, read-out: INH

T1 sequence (P14416 whole entry): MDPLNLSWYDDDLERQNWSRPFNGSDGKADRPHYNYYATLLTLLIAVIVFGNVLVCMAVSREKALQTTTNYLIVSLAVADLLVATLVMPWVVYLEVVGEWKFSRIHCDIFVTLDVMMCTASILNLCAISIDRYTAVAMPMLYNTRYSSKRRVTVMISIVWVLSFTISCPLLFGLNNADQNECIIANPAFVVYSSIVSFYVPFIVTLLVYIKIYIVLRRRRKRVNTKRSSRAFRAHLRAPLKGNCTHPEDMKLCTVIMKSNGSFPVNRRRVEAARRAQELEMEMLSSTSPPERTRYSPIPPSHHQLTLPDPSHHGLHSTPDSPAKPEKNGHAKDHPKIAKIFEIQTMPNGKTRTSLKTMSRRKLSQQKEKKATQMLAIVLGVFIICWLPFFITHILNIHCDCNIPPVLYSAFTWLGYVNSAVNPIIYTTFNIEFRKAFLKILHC
Adenosine receptor A2a (Homo sapiens, UniProt P29274), sequence (P29274 whole entry): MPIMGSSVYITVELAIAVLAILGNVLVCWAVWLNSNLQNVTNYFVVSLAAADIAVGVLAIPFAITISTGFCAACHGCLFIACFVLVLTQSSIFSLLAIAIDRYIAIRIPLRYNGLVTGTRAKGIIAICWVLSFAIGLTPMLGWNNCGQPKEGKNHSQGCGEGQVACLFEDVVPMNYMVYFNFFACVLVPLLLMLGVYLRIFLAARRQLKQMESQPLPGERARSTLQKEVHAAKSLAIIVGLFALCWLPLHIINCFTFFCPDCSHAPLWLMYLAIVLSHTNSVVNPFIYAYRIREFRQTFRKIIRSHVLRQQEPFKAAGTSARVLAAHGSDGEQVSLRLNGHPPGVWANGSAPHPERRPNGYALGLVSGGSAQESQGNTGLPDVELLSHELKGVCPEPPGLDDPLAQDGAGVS
Adenosine receptor A2a (Rattus norvegicus, UniProt P30543), sequence (P30543 whole entry): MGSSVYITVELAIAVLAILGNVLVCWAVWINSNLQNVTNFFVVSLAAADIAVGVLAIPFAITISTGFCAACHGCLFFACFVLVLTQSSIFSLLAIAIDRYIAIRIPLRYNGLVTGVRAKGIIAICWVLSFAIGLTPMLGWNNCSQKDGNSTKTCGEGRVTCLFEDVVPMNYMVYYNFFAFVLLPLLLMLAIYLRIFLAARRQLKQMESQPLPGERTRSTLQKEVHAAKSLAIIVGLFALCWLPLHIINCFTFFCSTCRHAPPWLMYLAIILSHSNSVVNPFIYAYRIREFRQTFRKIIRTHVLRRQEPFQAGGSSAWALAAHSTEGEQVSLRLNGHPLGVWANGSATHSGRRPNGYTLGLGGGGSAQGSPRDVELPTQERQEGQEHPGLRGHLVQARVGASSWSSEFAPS
T2 sequence (P35462 whole entry): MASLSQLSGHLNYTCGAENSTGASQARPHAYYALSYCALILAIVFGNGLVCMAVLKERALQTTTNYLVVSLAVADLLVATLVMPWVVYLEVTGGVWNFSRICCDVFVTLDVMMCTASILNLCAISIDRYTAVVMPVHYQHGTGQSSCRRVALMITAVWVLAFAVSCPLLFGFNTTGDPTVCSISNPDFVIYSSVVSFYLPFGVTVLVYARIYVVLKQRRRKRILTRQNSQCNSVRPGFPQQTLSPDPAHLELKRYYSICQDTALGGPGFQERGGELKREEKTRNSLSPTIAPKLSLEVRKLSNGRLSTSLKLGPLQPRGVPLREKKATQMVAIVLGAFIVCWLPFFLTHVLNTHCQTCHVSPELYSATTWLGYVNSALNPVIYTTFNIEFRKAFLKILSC

For CCCN(CCN1CCN(c2ccc(-c3ccccn3)nc2)CC1)[C@H]1CCc2nc(N)sc2C1, which EC50 (D(2) dopamine receptor [1]) is on record?
Its EC50 is 51.6 nM.

Which results are given for Fc1ccc(Nc2n[nH]c3cccnc23)cc1Cl?
EC50 [2]: 46 nM; bioavailability (in vivo [3]): 95%

For C#CCN1CCC[C@H]2c3[nH]c4ccccc4c3CC[C@@H]21, which Ki [4] is on record?
The Ki was 1.09 nM.

And the Ki [5]?
The Ki was 2.15 nM.

For CCCN(CCN1CCN(c2ccccc2)CC1)[C@H]1CCc2ccc(O)cc2C1, which EC50 (D(2) dopamine receptor [1]) is on record?
The EC50 was 9.98 nM.

And the EC50 (D(3) dopamine receptor [6])?
The EC50 was 2.91 nM.

Which IC50 [7] does the source give for Cc1ccc(-c2ncn(-c3ccc(Nc4nccc(-c5cccc(N6CCOCC6)c5)n4)cc3)n2)cn1 here?
The IC50 was 216 nM.

Which IC50 [8] does the source give for COc1ccc(/C(C)=N/NC(=O)c2cc(-c3ccccc3)on2)cc1OC here?
Its IC50 is 5.9 nM.

With C/C(=N\NC(=O)c1cc(-c2ccccc2)on1)c1ccc(C)cc1 as the compound, how does the IC50 [8] read?
The IC50 was 5.1 nM.

Which Ki [4] does the source give for CCCN1CCC[C@H]2c3[nH]c4ccccc4c3CC[C@@H]21 here?
Its Ki is 1.31 nM.

And the Ki [5]?
The Ki was 19.8 nM.

Which EC50 [9] does the source give for CCCN(CCN1CCN(c2ccc3[nH]ccc3c2Cl)CC1)[C@H]1CCc2nc(N)sc2C1 here?
Its EC50 is 114 nM.

What about the EC50 [10] of the same compound?
Its EC50 is 0.26 nM.

For CC1=C(C)C(=O)c2cc(C)ccc2C1=O, which Ki [11] is on record?
Its Ki is 6000 nM.

For Cc1cc(Oc2nccc3occc23)ccc1-c1c(C)c(=O)[nH]c(=O)n1C, which concentration at 4 h [12] is on record?
The concentration at 4 h was 100 µM.

And the concentration at 4 h [13]?
Its concentration at 4 h is 100 µM.

With COC[C@H]1CCCN1c1cc(Nc2ccccn2)nc(-n2cccn2)n1 as the compound, how does the Ki (Adenosine receptor A2a [14]) read?
The Ki was 0.22 nM.

Which Ki (Adenosine receptor A2a [14]) does the source give for Nc1nc(N2CCN3CCC[C@@H]3C2)cc2nc(-c3ccco3)nn12 here?
The Ki was 63 nM.

What about the Ki (Adenosine receptor A1 [15]) of the same compound?
The Ki was 1100 nM.

With Nc1nc(NC[C@H]2CCCN2Cc2ccnc(Cl)c2)nc2nc(-c3ccco3)nn12 as the compound, how does the Ki (Adenosine receptor A2a [16]) read?
Its Ki is 10 nM.

What about the Ki (Adenosine receptor A1 [17]) of the same compound?
Its Ki is over 250 nM.

With Cc1ccc(-c2cc(-c3cccc(C(=O)N4CCCCC4)c3)nc(N)n2)o1 as the compound, how does the Ki (Adenosine receptor A2a [16]) read?
The Ki was 9.54 nM.

And the Ki (Adenosine receptor A1 [17])?
The Ki was 6.34 nM.

With CNCc1cc(=O)oc2c(O)c(O)ccc12 as the compound, how does the IC50 [8] read?
The IC50 was 12400 nM.

With CCCN(CCN1CCN(C(=O)c2cc3ccccc3[nH]2)CC1)[C@H]1CCc2nc(N)sc2C1 as the compound, how does the EC50 [9] read?
The EC50 was 2.96 nM.

What about the EC50 [10] of the same compound?
The EC50 was 1.26 nM.

What does the source list for CO[C@@H]1CCN(c2cccc(-c3nc(-n4nc(C)cc4C)nc(N)c3C#N)n2)C1?
half-life [18]: 53 min; CLint scaled [19]: 34 mL/min/kg

Which Ki (Adenosine receptor A1 [15]) does the source give for Cc1cccc(Nc2nc(NCCCO)nc3c2cnn3-c2ccccc2)c1 here?
The Ki was over 540 nM.

With CCCN(CCN1CCN(c2ccc3c(c2)[nH]c2ccccc23)CC1)[C@H]1CCc2c(O)cccc2C1 as the compound, how does the EC50 (D(3) dopamine receptor [20]) read?
Its EC50 is 0.87 nM.

What about the EC50 (D(2) dopamine receptor [21]) of the same compound?
The EC50 was 0.23 nM.

For Cn1nc(C(F)(F)F)c(CN2CCN(c3nc(N)n4nc(-c5ccco5)nc4n3)CC2)c1Cl, which half-life [22] is on record?
The half-life was 30 min.

What about the bioavailability (in vivo [23]) of the same compound?
Its bioavailability is 7%.

Which inhibition in vivo at 30 mg/kg (animal or person) does the source give for O=C(CCN1CCN(c2cccc(C(F)(F)F)c2)CC1)c1cc(O)c(O)c([N+](=O)[O-])c1 here?
Its inhibition in vivo at 30 mg/kg is 74%.
